Results on 25 compounds are retold here after patent publication US4267184A, “Antiinflammatory 4,5-diaryl-2-(substituted-thio)pyrroles and their corresponding sulfoxides and sulfones” (E. I. Du Pont de Nemours and Company, priority 1980, dated 1981).

The term ED50 denotes the dose at which the effect has come halfway, by size or by number of responders.

The subject of assay [1] is Adjuvant-Induced Arthritis in Rats. The experiment in a line: Established Adjuvant-Induced Arthritis in Rats. The note with it: for ED50: 168 h, oral gavage daily for 7 days, ED50% decrease from control paw volume. The class given is in vivo, Charles River Lewis male rats. Here is the method: A procedure for detecting and comparing the antiinflammatory activity of compounds in this series and standard drugs for which there is a good correlation with human efficacy is the adjuvant-induced arthritis test in rats.
(§1) The test procedures employed for determining antiinflammatory and analgesic activity are described below with test data included in Tables VII and VIII.
Charles River Lewis male rats (130-150 grams) are injected subcutaneously in plantar area of the right hind paw with 0.1 ml of adjuvant (Difco heat-killed, lyophilized Mycobacterium butyricum suspended in mineral oil 5 mg/ml). 20 Non-arthritic controls are injected with mineral oil. The animals are held for 2 weeks to allow development of arthritis. Paw volumes (uninjected, left hind paw) are measured and the adjuvant injected rats are culled and distributed to treatment groups of 10 of equal disease severity. Non-arthritic controls are distributed to 2 groups of 10. The rats are given oral doses of compound or PVA-Acacia (Polyvinyl Alcohol 1%, Gum Acacia, U.S.P. 5%, Methylparaben 0.5%) (10 ml/kg) by gavage on that day and on the 6 following days. One day after the last dose the paw volumes (uninjected, left hind paw) are measured using a Ugo Basile Volume Differential Meter Model 7101. [formula]
Dose-response regression lines of the % decrease are plotted on semi-log paper by visual fit and the ED50% decrease from control paw volume is determined by inspection.

In assay [2] the test system is phenylquinone writhing in mice. The experiment in a line: Phenylquinone Writhing Test (analgesic activity). The class given is in vivo, female white mice. The settings on record: Mus musculus, oral, phenylquinone i.p., effective analgesic dose for 50% of the mice.
From the text: A procedure for detecting and comparing the analgesic activity of compounds in this series and standard drugs for which there is a good correlation with human efficacy is the phenylquinone writhing test.
as §1
The phenylquinone writhing test, modified from Siegmund, et al., Proc. Soc. Exp. Biol. Med. 95, 729 (1957), was employed. A test compound suspended in 1% methylcellulose was given orally to fasted (17-21 hours) female white mice, 5-20 animals per double blind test. Aqueous (0.01% phenyl-p-benzoquinone) phenylquinone was injected intraperitoneally at 24 minutes later using 0.20 ml per mouse. […] The effective analgesic dose for 50% of the mice (ED50) was calculated by the moving average method of Thompson, W. R., Bact. Rev. 11, 115-145 (1947).
For orientation: An intraperitoneal irritant provokes the stretching counted in writhing tests.

The mark [3] stands for this setting: Rattus norvegicus, Table VII, oral, read-out: percent reduction in paw volume at the indicated dose.

Structures are written as SMILES.

As for `O=S(=O)(c1cc(-c2ccccc2)c(-c2ccccc2)[nH]1)C(F)(F)F` [Example 51], in assay [1] (Rattus norvegicus, Table VII, oral, dose 25 mg/kg, read-out: percent reduction in paw volume at the indicated dose), the inhibition in vivo at 25 mg/kg amounted to 46%. In addition, the ED50 in assay [2] (Table VII) was determined as 15 mg/kg.
Turning to `Fc1ccc(-c2[nH]c(SC(F)(F)F)cc2-c2ccccc2)cc1` [Example 23], the “Adjuvant Arthritis, value in parenthesis (percent reduction in paw volume/dose)” value in assay [1] (Table VIII, oral, dose 27 (unit not given)) worked out at 27%. In addition, the ED50 in assay [2] (Table VIII) was more than 108 mg/kg.
Consider `CS(=O)(=O)c1cc(-c2ccc(Cl)cc2)c(-c2ccccc2)[nH]1` [Example 71], for which the inhibition in vivo at 27 mg/kg in assay [1] (setting [3]) is 23%. This compound also came in with an ED50 in assay [2] (Table VII) of more than 108 mg/kg.
Regarding `COc1ccc(-c2cc(SC)[nH]c2-c2ccc(OC)cc2)cc1` [Example 36], the ED50 was 5 mg/kg in assay [1] (Rattus norvegicus, Table VII) and more than 130 mg/kg in assay [2] (Table VII).
As to `FC(F)(F)Sc1cc(-c2cccc(Cl)c2)c(-c2cccc(Cl)c2)[nH]1` [Example 25], the ED50 in assay [1] (Rattus norvegicus, Table VIII) was 25 mg/kg; in assay [2] (Table VIII), more than 108 mg/kg.
In the same order, the values of `Fc1ccc(-c2cc(SC(F)(F)F)[nH]c2-c2cccs2)cc1` [Example 27] are approximately 27 mg/kg and more than 108 mg/kg.
Take `CSc1cc(-c2ccc(C)cc2)c(-c2ccc(C)cc2)[nH]1` [Example 49]: the ED50 was 50 mg/kg in assay [1] (Rattus norvegicus, Table VII) and more than 135 mg/kg in assay [2] (Table VII).
The matching figures for `CCS(=O)(=O)c1cc(-c2ccc(OC)cc2)c(-c2ccc(OC)cc2)[nH]1` [Example 55]: 9 mg/kg and 19 mg/kg.
In the same order, the values of `COc1ccc(-c2cc(SC(F)(F)F)[nH]c2-c2ccc(OC)cc2)cc1` [Example 2, 4,5-Bis(4-methoxyphenyl)-2-(trifluoromethylthio)pyrrole] are 1.7 mg/kg and 30 mg/kg.
On to `CS(=O)(=O)c1ccc(-c2[nH]c(SC(F)(F)F)cc2-c2ccc(F)cc2)cc1` [Example 29], for which the ED50 in assay [1] (Rattus norvegicus, Table VIII) was 0.15 mg/kg; in assay [2] (Table VIII) it was more than 108 mg/kg.
In the same order, the values of `FC(F)(F)Sc1cc(-c2ccccc2)c(-c2ccc(Cl)cc2)[nH]1` [Example 24] are 10 mg/kg and more than 135 mg/kg.
The matching figures for `Cn1c(SC(F)(F)F)cc(-c2ccc(F)cc2)c1-c1ccc(F)cc1` [Example 74, 1-Methyl-4,5-bis(4-fluorophenyl)-2-(trifluoromethylthio)pyrrole]: 1.1 mg/kg and more than 108 mg/kg.
For `COc1ccc(-c2[nH]c(S(C)(=O)=O)cc2-c2ccc(Cl)cc2)cc1` [Example 69], the ED50 came out at 13 mg/kg in assay [1] (Rattus norvegicus, Table VII) and 38 mg/kg in assay [2] (Table VII).
As to `CSc1cc(-c2ccc(Cl)cc2)c(-c2ccccc2)[nH]1` [Example 48], the inhibition in vivo at 45 mg/kg in assay [1] (Rattus norvegicus, Table VII, oral, dose 45 mg/kg, read-out: percent reduction in paw volume at the indicated dose) came out at 22%. This compound returned an ED50 in assay [2] (Table VII) of more than 108 mg/kg.
Take `FC(F)(F)Sc1cc(-c2ccccc2)c(-c2cccnc2)[nH]1` [Example 17]: the ED50 in assay [1] (Rattus norvegicus, Table VIII) was 1.4 mg/kg; in assay [2] (Table VIII), more than 108 mg/kg.
On to `CC(=O)n1c(SC(F)(F)F)cc(-c2ccc(F)cc2)c1-c1ccc(F)cc1` [Example 73, 1-Acetyl-4,5-bis(4-fluorophenyl)-2-(trifluoromethylthio)pyrrole], for which the ED50 was 4 mg/kg in assay [1] (Rattus norvegicus, Table VIII) and more than 108 mg/kg in assay [2] (Table VIII).
On to `COc1ccc(-c2[nH]c(SC(F)(F)F)cc2-c2ccc(F)cc2)cc1` [Example 8], for which the ED50 in assay [1] (Rattus norvegicus, Table VII) is 30 mg/kg; in assay [2] (Table VII), 26 mg/kg.
In the case of `Fc1ccc(-c2cc(SC(F)(F)F)[nH]c2-c2ccc(Cl)cc2)cc1` [Example 7], the ED50 in assay [1] (Rattus norvegicus, Table VII) was 1.1 mg/kg; in assay [2] (Table VII), more than 108 mg/kg.
For the compound `O=S(=O)(c1cc(-c2ccc(F)cc2)c(-c2ccc(F)cc2)[nH]1)C(F)(F)F` [Example 56], the ED50 was 1.4 mg/kg in assay [1] (Rattus norvegicus, Table VII) and more than 135 mg/kg in assay [2] (Table VII).
`Fc1ccc(-c2[nH]c(SC(F)(F)F)cc2-c2ccc(Cl)cc2)cc1` [Example 6]: the ED50 is 2 mg/kg in assay [1] (Rattus norvegicus, Table VII) and more than 108 mg/kg in assay [2] (Table VII).
On to `CSc1ccc(-c2[nH]c(SC(F)(F)F)cc2-c2ccc(F)cc2)cc1` [Example 26], for which the ED50 is 0.6 mg/kg in assay [1] (Rattus norvegicus, Table VIII) and more than 108 mg/kg in assay [2] (Table VIII).
Turning to `FC(F)(F)Sc1cc(-c2ccc(Cl)cc2)c(-c2ccc(Cl)cc2)[nH]1` [Example 4], the ED50 in assay [1] (Rattus norvegicus, Table VII) is 2.8 mg/kg; in assay [2] (Table VII), more than 130 mg/kg.
In the same order, the values of `O=S(=O)(c1cc(-c2ccc(Cl)cc2)c(-c2ccc(Cl)cc2)[nH]1)C(F)(F)F` [Example 58] are 1.7 mg/kg and less than 130 mg/kg.
Regarding `COc1ccc(-c2[nH]c(SC)cc2-c2ccc(Cl)cc2)cc1` [Example 46], the ED50 in assay [1] (Rattus norvegicus, Table VII) was found to be 23 mg/kg; in assay [2] (Table VII), 63 mg/kg.
As to `Fc1cccc(-c2cc(SC(F)(F)F)[nH]c2-c2cccc(F)c2)c1` [Example 13], the inhibition in vivo at 27 mg/kg in assay [1] (setting [3]) was determined as 33%. In assay [2] (Table VII), this compound showed an ED50 of more than 108 mg/kg.
